In one assay the test system is MC38 tumor cells. As to the kind of experiment: MC38 tumors in GF mice: inosine with anti-CTLA-4 with or without CpG. Type of assay: in vivo. As to the method: FIG. 5A-5L: Inosine promotes Th1 activation and anti-tumor immunity. (a) Schematic overview of experimental setup to assess the effect of inosine on Th1 activation in vivo. (b, c) Representative dot plots and quantification (left and right panel respectively) of T-bet^+IFN-γ^+CD3ε^+ (b) CD8^+ or (c) CD4^+ T cells in the MLN. (d) Schematic overview of experimental setup to assess the effect of inosine on anti-tumor immunity. Upon palpable tumors, mice were treated with 100 μg anti-CTLA-4 i.p. (5 times every 72 hours) and in some groups 20 μg CpG i.p. (5 times every 72 hours). In addition, inosine (300 mg/KG/BW) or PBS was given daily orally (O), through gavage or systemically (S) through i.p. injection. (e) Tumor weight and quantification of IFN-γ^+ cells amongst (f) CD4^+ or (g) CD8^+ cells are shown. (h). Schematic overview to assess the requirement of A2AR signaling for inosine-induced anti-tumor immunity. 1×10^6 MC38 cells (s.c.) and WT or A2AR-deficient 1×10^7 T cells (i.v. 6×10^6 CD4^+ and 4×10^6 CD8^+ cells) were injected. Upon palpable tumors, mice were treated with 100 μg anti-CTLA-4, 20 μg CpG (4 times every 72 hours, both i.p.) and inosine (daily, 300 mg/KG/BW, through gavage). (i) Pictures of tumors are shown at day 20. scale bars: 1 cm. (j) Tumor weight and quantification of IFN-γ^+ in (k) CD8^+ or (l) CD4^+ cells in the tumor are shown. Data are mean±SEM and pooled from two individual experiments (a-l) 10-11 mice/group. *, P<0.05; **, P<0.01; ***, P<0.001.
FIG. 18A-18H: Classical dendritic cells are required for bacteria dependent effect of ICB. (a) IL-12p70 expression in classical dendritic cells (MHCII^+CD11c^+B220^−CD64^−) and macrophages (MHCII^+CD11c^+B220^−, CD64^+) (b) Quantification of IL-12p70 expression in macrophages and cDCs. Classical dendritic cells were depleted with diphtheria toxin (DT) in bone marrow chimeric mice after MC38 tumor challenge, followed by anti-CTLA-4 treatment (see FIG. 4h for experimental setup). Quantification of splenic (c) IFN-γ^+CD8^+ or (d) Ki-67^+ CD8^+ T cells. (e and f) same as (c and d) but for CD4^+ T cells. (g and h) 1×10^6 MC38 cells (s.c.) were injected in GF mice. Seven days later upon palpable tumors, mice were treated with 100 μg anti-CTLA-4 i.p. (5 times every 72 hours) and in some groups 20 μg CpG i.p. (5 times every 72 hours). In addition, inosine (300 mg/KG/BW) or PBS was given daily orally (O), through gavage or systemically (S) through i.p. injection. Quantification of Ki-67^+ cells is shown. […]
To evaluate the effect of inosine on Th1 activation, mice received 30 μg CpG, […] EndoFit Ovalbumin (both Invivogen) and 2 μg OVA323-339 (Sigma) i.p. and 24 hours later mice received 300 mg/kg/BW inosine or PBS as a control through i.p. injection. T cell differentiation was assessed 48 hours later. […]

The subject of a further assay is MC38. Put plainly: MC38 tumors in SPF mice, inosine or B. pseudolongum + anti-CTLA-4. The settings on record: oral gavage. In kind it is in vivo. The protocol:
FIG. 35A-35H. Inosine and live B. pseudolongum improve anti-CTLA-4 therapy efficacy in moderately diverse and complex microbiomes. A) Schematic overview of experimental setup to assess the effect of inosine on anti-tumor immunity in gnotobiotic mice (Oligo-MM12) stably colonized with 12 bacterial species. Upon palpable tumors, Oligo-MM12 colonized mice were treated with 100 μg anti-CTLA-4 i.p. or Isotype antibody (5 times every 72 hours). In addition, inosine (300 mg/KG/BW) or PBS was given daily orally through gavage. (B) Pictures of tumors and (C) tumor weight are shown at day 20. scale bars: 1 cm. (D) Quantification of intratumoral IFN-γ+ cells amongst CD8+ or CD4+ T cells are shown. (E) Schematic overview of experimental setup to assess the effect of inosine and B. pseudolongum on anti-tumor immunity in SPF mice. Following MC38 injection some mice received antibiotics (ABX), specifically Ampicillin 1 mg/ml, Colistin 1 mg/ml and Streptomycin 5 mg/ml for 7 days in the drinking water. Upon palpable tumors, antibiotics were removed and 100 μg anti-CTLA-4 (5 times every 72 hours) started. Mice concomitantly received either PBS, inosine (300 mg/KG/BW daily), B. pseudolongum or heat inactivated (H.i.) B. pseudolongum orally through gavage (5 times every 72 hours). […] (H) Quantification of intratumoral IFN-γ+ cells amongst CD8+ or CD4+ cells are shown. […]

Another assay addresses A2AR (Homo sapiens, UniProt P29274). The settings on record: compared to adenosine; cited from earlier work.
[1] abbreviates: with anti-CTLA-4, in the absence of CpG.
Where [2] appears, read: with anti-CTLA-4 and CpG, oral or systemic, vs PBS.

Data on one compound can be found in patent publication US20240181049A1, “HARNESSING THE POWER OF MICROBIOTA AND METABOLITES FOR THE TREATMENT OF CANCER” (UTI LIMITED PARTNERSHIP, priority 2019, published 2024).

A2AR, sequence (P29274 whole entry): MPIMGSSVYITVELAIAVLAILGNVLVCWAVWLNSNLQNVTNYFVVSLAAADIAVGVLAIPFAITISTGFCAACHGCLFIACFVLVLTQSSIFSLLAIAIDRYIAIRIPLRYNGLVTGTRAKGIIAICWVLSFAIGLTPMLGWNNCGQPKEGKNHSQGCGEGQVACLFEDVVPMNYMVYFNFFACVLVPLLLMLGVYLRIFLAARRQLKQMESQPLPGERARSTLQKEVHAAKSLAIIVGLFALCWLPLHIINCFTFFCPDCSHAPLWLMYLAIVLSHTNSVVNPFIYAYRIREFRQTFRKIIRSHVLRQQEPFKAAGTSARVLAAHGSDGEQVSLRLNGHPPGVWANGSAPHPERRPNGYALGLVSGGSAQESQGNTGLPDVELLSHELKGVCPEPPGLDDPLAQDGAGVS

`OC[C@H]1O[C@@H](n2cnc3c(O)ncnc32)[C@H](O)[C@@H]1O` [inosine]: in the assay on MC38 tumor cells (setting [1]), the anti-tumor immunity entry is “reduced anti-tumor immunity” and the tumor weight result was “increased tumor weight”. Moreover, in the assay on MC38 tumor cells (setting [2]), the anti-tumor immunity entry was “increased anti-tumor immunity” and the tumor weight entry is reported as “reduction of tumor weight”. The “efficacy of anti-CTLA-4” value in the assay on MC38 is “could promote the efficacy of anti-CTLA-4”. The “A2AR-dependent signaling bias, preference for ERK1/2 phosphorylation” value at A2AR is recorded as 3.3 fold.
